target: T1, Bile acid receptor (Homo sapiens, UniProt Q96RI1); test: (§1) Effective concentration against farnesoid X receptor (FXR)
T1 sequence (Q96RI1 whole entry): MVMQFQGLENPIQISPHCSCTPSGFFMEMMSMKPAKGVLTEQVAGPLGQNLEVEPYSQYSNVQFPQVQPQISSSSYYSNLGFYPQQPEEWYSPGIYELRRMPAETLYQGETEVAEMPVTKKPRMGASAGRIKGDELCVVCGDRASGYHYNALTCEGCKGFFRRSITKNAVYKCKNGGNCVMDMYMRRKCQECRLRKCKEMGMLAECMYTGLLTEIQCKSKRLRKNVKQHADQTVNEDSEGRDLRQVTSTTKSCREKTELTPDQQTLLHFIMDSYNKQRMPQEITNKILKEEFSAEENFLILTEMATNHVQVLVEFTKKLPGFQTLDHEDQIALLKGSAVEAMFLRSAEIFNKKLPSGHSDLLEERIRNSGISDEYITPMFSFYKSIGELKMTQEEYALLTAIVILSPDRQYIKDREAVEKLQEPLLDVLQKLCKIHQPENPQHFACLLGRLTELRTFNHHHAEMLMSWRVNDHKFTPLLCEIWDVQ

EC50	Compound
186 nM	COC(=O)/C=C/c1cccc(N(Cc2ccc(/C=C/c3ccc(F)cc3)cc2)C(=O)C2CCCCC2)c1
468 nM	COC(=O)/C=C/c1cccc(N(Cc2ccc(/C=C/c3cccc(F)c3)cc2)C(=O)NC(C)C)c1
72.4 nM	COC(=O)/C=C/c1cccc(N(Cc2ccc(-c3cccc(OC)c3)cc2)C(=O)C(C)C)c1
129 nM	COC(=O)/C=C/c1cccc(N(Cc2ccc(-c3ccc(F)c(Cl)c3)cc2)C(=O)C(C)C)c1
263 nM	COC(=O)/C=C/c1cccc(N(Cc2ccc(-c3ccc(OC(F)(F)F)cc3)cc2)C(=O)C2CCCCC2)c1
70.8 nM	COC(=O)/C=C/c1cccc(N(Cc2ccc(/C=C/c3ccccc3F)cc2)C(=O)C(C)C)c1
1000 nM	COC(=O)/C=C/c1cccc(N(Cc2ccc(/C=C/C(=O)O)cc2)C(=O)C2CCCCC2)c1
162 nM	COC(=O)/C=C/c1cccc(N(Cc2ccc(/C=C/c3cccc(Cl)c3)cc2)C(=O)C(C)C)c1
234 nM	COC(=O)/C=C/c1cccc(N(Cc2ccc(-c3cc(Cl)ccc3OC)cc2)C(=O)C2CCCCC2)c1
64.6 nM	COC(=O)/C=C/c1cccc(N(Cc2ccc(/C=C/c3ccccc3)cc2)C(=O)C(C)C)c1
1000 nM	CC(C)(C)OC(=O)/C=C/c1ccc(CN(C(=O)C2CCCCC2)c2cccc(/C=C/C(=O)OC(C)(C)C)c2)cc1
151 nM	COC(=O)/C=C/c1cccc(N(Cc2ccc(/C=C/c3c(Cl)cccc3Cl)cc2)C(=O)C2CCCCC2)c1
166 nM	COC(=O)/C=C/c1cccc(N(Cc2ccc(/C=C/c3cccc(Cl)c3)cc2)C(=O)C2CCCCC2)c1
1000 nM	COC(=O)/C=C/c1cccc(N(Cc2ccc(/C=C/C(=O)OC(C)(C)C)cc2O)C(=O)C2CCCCC2)c1
1410 nM	COC(=O)/C=C/c1cccc(N(Cc2ccc(-c3cccc(Cl)c3)cc2)C(=O)NC(C)C)c1
19.1 nM	COC(=O)/C=C/c1cccc(N(Cc2ccc(-c3ccc4c(c3)OCO4)cc2)C(=O)C(C)C)c1
1320 nM	COC(=O)/C=C/c1cccc(N(Cc2ccc(-c3cccc(C)c3)cc2)C(=O)NC(C)C)c1
417 nM	COC(=O)/C=C/c1cccc(N(Cc2ccc(-c3cccc(OC(F)(F)F)c3)cc2)C(=O)C2CCCCC2)c1
562 nM	COC(=O)/C=C/c1cccc(N(Cc2ccc(-c3c(OC)cccc3OC)cc2)C(=O)NC(C)C)c1
77.6 nM	COC(=O)/C=C/c1cccc(N(Cc2ccc(-c3cccc(OC)c3)cc2)C(=O)C2CCCCC2)c1
603 nM	COC(=O)/C=C/c1cccc(N(Cc2cc(OC)cc(OC)c2)C(=O)C2CCCCC2)c1

target: T1, Bile acid receptor; test: as §1

EC50	Compound
> 1000 nM	CCOC(=O)COc1cc(/C=C/C(=O)OC(C)(C)C)ccc1CN(C(=O)C1CCCCC1)c1cccc(/C=C/C(=O)OC)c1
228 nM	COC(=O)/C=C/c1cccc(N(Cc2ccc(/C=C/c3scnc3C)cc2)C(=O)C(C)C)c1
> 1000 nM	COC(=O)/C=C/c1cccc(N(Cc2ccc(/C=C/C(=O)OCc3ccccc3)cc2)C(=O)C2CCCCC2)c1
> 1000 nM	COC(=O)/C=C/c1ccc(CN(C(=O)C2CCCCC2)c2cccc(/C=C/C(=O)OC)c2)cc1
38 nM	COC(=O)/C=C/c1cccc(N(Cc2ccc(-c3ccc4c(c3)OCO4)cc2)C(=O)C2CCCCC2)c1
> 1000 nM	CCOC(=O)/C=C/c1ccc(CN(C(=O)C2CCCCC2)c2cccc(/C=C/C(=O)OC)c2)cc1
185 nM	COC(=O)/C=C/c1cccc(N(Cc2ccc(/C=C/c3ccc(F)cc3)cc2)C(=O)C2CCCCC2)c1
> 1000 nM	COC(=O)/C=C/c1cccc(N(Cc2ccc(/C=C/C(=O)OC(C)(C)C)cc2OC(=O)c2ccccc2)C(=O)C2CCCCC2)c1
64 nM	COC(=O)/C=C/c1cccc(N(Cc2ccc(/C=C/c3ccccc3F)cc2)C(=O)C2CCCCC2)c1
233 nM	COC/C=C/c1ccc(CN(C(=O)C2CCCCC2)c2cccc(/C=C/C(=O)OC)c2)cc1
> 1000 nM	CC(C)(C)OC(=O)/C=C/c1cccc(N(Cc2ccc(CCC(=O)OC(C)(C)C)cc2)C(=O)C2CCCCC2)c1
> 1000 nM	COC(=O)/C=C/c1cccc(N(Cc2ccc(/C=C/C(=O)OC(C)(C)C)cc2OC)C(=O)C2CCCCC2)c1
243 nM	COC/C=C/c1cccc(N(Cc2ccc(/C=C/C(=O)OC(C)(C)C)cc2)C(=O)C2CCCCC2)c1
220 nM	CCOC/C=C/c1cccc(N(Cc2ccc(/C=C/C(=O)OC(C)(C)C)cc2)C(=O)C2CCCCC2)c1
310 nM	COC(=O)/C=C/c1cccc(N(Cc2ccc(/C=C/c3ccccn3)cc2)C(=O)C(C)C)c1
25 nM	COC(=O)/C=C/c1cccc(N(Cc2ccc(-c3ccc(N(C)C)cc3)cc2)C(=O)C2CCCCC2)c1 [FEXARAMINE]
> 1000 nM	CC(C)(C)OC(=O)/C=C/c1ccc(CN(C(=O)C2CCCCC2)c2cccc(/C=C/C(N)=O)c2)cc1

EC50	Compound
> 1000 nM	COC(=O)/C=C/c1cccc(N(Cc2ccc(/C=C/C(=O)O)cc2)C(=O)C2CCCCC2)c1
1470 nM	COC(=O)/C=C/c1cccc(N(Cc2ccc(/C=C/c3cc(C(F)(F)F)cc(C(F)(F)F)c3)cc2)C(=O)C2CCCCC2)c1
> 1000 nM	COC(=O)/C=C/c1cccc(N(Cc2ccc(/C=C/C(=O)OC(C)(C)C)cc2OS(C)(=O)=O)C(=O)C2CCCCC2)c1
> 1000 nM	COC(=O)/C=C/c1cccc(N(Cc2ccc(/C=C/C(=O)OC(C)(C)C)cc2OCc2ccccc2)C(=O)C2CCCCC2)c1
> 1000 nM	CC(C)(C)OC(=O)/C=C/c1ccc(CN(C(=O)C2CCCCC2)c2cccc(/C=C/C(=O)OC(C)(C)C)c2)cc1
150 nM	COC(=O)/C=C/c1cccc(N(Cc2ccc(/C=C/c3c(Cl)cccc3Cl)cc2)C(=O)C2CCCCC2)c1
165 nM	COC(=O)/C=C/c1cccc(N(Cc2ccc(/C=C/c3cccc(Cl)c3)cc2)C(=O)C2CCCCC2)c1
> 1000 nM	COC(=O)/C=C/c1cccc(N(Cc2ccc(/C=C/C(=O)OC(C)(C)C)cc2O)C(=O)C2CCCCC2)c1
86 nM	COC(=O)/C=C/c1cccc(N(Cc2ccc(/C=C/c3cccc(F)c3)cc2)C(=O)C2CCCCC2)c1
> 1000 nM	COC(=O)/C=C/c1cccc(N(Cc2ccc(/C=C/C(=O)NC(C)(C)C)cc2)C(=O)C2CCCCC2)c1
227 nM	COC(=O)/C=C/c1cccc(N(Cc2ccc(/C=C/c3scnc3C)cc2)C(=O)C2CCCCC2)c1
77 nM	COC(=O)/C=C/c1cccc(N(Cc2ccc(-c3c(OC)cccc3OC)cc2)C(=O)C2CCCCC2)c1
> 1000 nM	COC(=O)/C=C/c1cccc(N(Cc2ccc(/C=C/C(=O)N(C)C)cc2)C(=O)C2CCCCC2)c1
> 1000 nM	COC(=O)/C=C/c1cccc(N(Cc2ccc(/C=C/C(=O)OC(C)(C)C)cc2OC(C)=O)C(=O)C2CCCCC2)c1
208 nM	COC(=O)/C=C/c1cccc(N(Cc2ccc(/C=C/c3ccc(OC)cc3)cc2)C(=O)C2CCCCC2)c1
206 nM	COC(=O)/C=C/c1cccc(N(Cc2ccc(-c3ccc(C)s3)cc2)C(=O)C2CCCCC2)c1
309 nM	COC(=O)/C=C/c1cccc(N(Cc2ccc(/C=C/c3ccccn3)cc2)C(=O)C2CCCCC2)c1
